Test results: patent US11433053B2, “LSD1 inhibitor and preparation method and application thereof” (CSPC ZHONGQI PHARMACEUTICAL TECHNOLOGY (SHIJIAZHUANG) CO., …, priority 2017, dated 2022)

Columns and labels:
[1] = molecular target: human LSD1 (Homo sapiens (Human), UniProt O60341); assay: Evaluation of enzyme activity: LSD1 fluorescence coupling enzyme assay (HRP/Amplex Red); format: biochemical; details: human LSD1, histone H3(1-21)K4me2 peptide 10 μM, 30 min pre-incubation
In short: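 Human LSD1 preincubated 30 min with compound, then reacted with H3(1-21)K4me2 peptide (10 μM). FAD-dependent H2O2 detected via HRP/Amplex Red fluorescence (Ex/Em 535/590). Ten-dose, 3-fold dilutions in duplicate from 10 μM gave IC50s, binned into activity classes.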

[2] = test system: H1417 cells; assay: Cell proliferation inhibitory activity on H1417 cells (CellTiter-Glo, 10 days); format: cell-based, human; details: Homo sapiens; for IC50: NCI-H1417, 240 h, H1417 cells, 10 days incubation; for Emax: NCI-H1417, H1417 cells, highest percentage inhibition of cell viability, read-out: Maximum inhibition percentage (%)
In short: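 H1417 cells in RPMI 1640 with fetal bovine serum were treated with 10-point 3-fold compound dilutions for 10 days. Viability was read by CellTiter-Glo luminescence. IC50 came from a four-parameter fit of percent inhibition, and maximal inhibition was also categorized.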

| IC50 [1] | IC50 [2] | SMILES | Emax [2] |
| --- | --- | --- | --- |
| ≤ 0.05 µM | 0.1 to 0.5 µM | N[C@H]1CC[C@H](c2nc(C3(CN[C@@H]4C[C@H]4c4ccccc4)CC3)no2)CC1 [Example 144] | 90 to 100% |
| ≤ 0.05 µM | 0.1 to 0.5 µM | N[C@H]1CC[C@@H](c2nc(C3(CN[C@@H]4C[C@H]4c4ccccc4)CC3)no2)CC1 [Example 145] | 70 to 90% |
| ≤ 0.05 µM | ≤ 0.1 µM | N[C@H]1CC[C@H](c2cc(C3(CN[C@@H]4C[C@H]4c4ccccc4)CC3)no2)CC1 [Example 241] | 70 to 90% |
